In patent EP4603105A1, “PHARMACEUTICAL COMPOSITION CONTAINING CYCLIC COMPOUND HAVING SELECTIVE KRAS INHIBITORY EFFECT AGAINST HRAS AND NRAS” (CHUGAI SEIYAKU KABUSHIKI KAISHA, priority 2022, dated 2024):

Columns and labels:
[1] = target: GDP-bound KRAS wild-type protein (Homo sapiens, UniProt P01116); assay: Binding to KRAS by surface plasmon resonance (SPR), dissociation constant KD; conditions: Single Cycle Kinetics
How it was run: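 Each cycle, GDP-bound biotin-Avi RAS was captured (~100–300 RU), compound concentrations were injected low to high for 75 s each at 100 µL/min, then the chip was regenerated. Buffer: HBS pH 7.4, 10 mM MgCl2, 10 µM GDP, 1 mM DTT, 4% DMSO; 30°C. KD from a 1:1 binding model.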

[2] = target: GDP-bound NRAS wild-type protein (Homo sapiens, UniProt P01111); assay: Binding to NRAS by surface plasmon resonance (SPR), KD and KD ratio to KRAS; conditions: ratio of KD for GDP-bound NRAS wild-type protein to KD for KRAS
How it was run: (§1)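 GDP-bound biotin-Avi RAS captured at ~100–300 RU, 30°C, pH 7.4 HBS containing 10 µM GDP, 10 mM MgCl2, 1 mM DTT, 0.01% Tween 20 and 4% DMSO. KD by 1:1 fitting.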

[3] = target: HRAS wild-type protein (Homo sapiens, UniProt P01112); assay: Binding to HRAS by surface plasmon resonance (SPR), KD and KD ratio to KRAS; conditions: ratio of KD for HRAS wild-type protein to KD for KRAS
How it was run: as §1

[4] = system: human lung cancer strain NCI-H441; type: cell-based
How it was run: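 Readout: […] after the ATP-based reagent. Compound: serial dilutions in dimethyl sulfoxide.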

[5] = system: human gastric cancer strain SNU-1; type: cell-based
How it was run: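 SNU-1 gastric cancer cells, 250 cells/well in RPMI-1640 with 10% FBS, glucose, HEPES and sodium pyruvate, plated onto serially diluted compound in DMSO.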

[6] = system: human pancreatic cancer strain KP4; type: cell-based
How it was run: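 KP4 pancreatic cancer cells seeded at 500 cells/well in DMEM/Ham's F-12 with 10% FBS onto serially diluted compound. Viability read by CellTiter-Glo luminescence.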

[7] = system: human colorectal cancer strain GP2d; type: cell-based
How it was run: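 Cells seeded at 500 cells/well in DMEM with 10% FBS onto serially diluted compound in DMSO, then cultured 7 days at 37°C, 5% CO2. Viability read by CellTiter-Glo luminescence.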

[8] = system: human gastric cancer strain GSU; type: cell-based
How it was run: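 Cells seeded at 200 per well in RPMI-1640 with 10% FBS onto serially diluted compound (DMSO) in U-bottom plates. Viability read by CellTiter-Glo luminescence.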

[9] = system: human ovarian cancer strain OV7; type: cell-based
How it was run: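 OV7 cells, 250 per well, in DMEM/Ham's F-12 with 5% FBS, 0.5 µg/mL hydrocortisone and 10 µg/mL insulin, grown 7 days at 37°C with serially diluted compound. Viability by CellTiter-Glo luminescence.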

[10] = system: human bladder cancer strain UM-UC-3; type: cell-based
How it was run: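 UM-UC-3 human bladder cancer cells were seeded at 250 cells/well onto serially diluted compound in MEM with 10% FBS. Viability was read as CellTiter-Glo luminescence.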

HRAS wild-type protein, sequence (P01112 whole entry): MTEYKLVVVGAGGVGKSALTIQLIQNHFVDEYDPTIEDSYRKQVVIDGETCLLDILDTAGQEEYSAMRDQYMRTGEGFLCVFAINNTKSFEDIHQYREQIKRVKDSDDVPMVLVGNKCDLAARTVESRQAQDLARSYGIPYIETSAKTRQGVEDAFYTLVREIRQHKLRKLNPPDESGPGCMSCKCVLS
GDP-bound KRAS wild-type protein, sequence (P01116 1-188 isoform P01116-2): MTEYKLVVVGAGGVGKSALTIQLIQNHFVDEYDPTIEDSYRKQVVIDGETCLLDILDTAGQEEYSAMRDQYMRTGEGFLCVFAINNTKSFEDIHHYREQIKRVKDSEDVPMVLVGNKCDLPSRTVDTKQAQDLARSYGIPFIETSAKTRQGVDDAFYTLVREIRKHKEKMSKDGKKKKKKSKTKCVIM
GDP-bound NRAS wild-type protein, sequence (P01111 whole entry): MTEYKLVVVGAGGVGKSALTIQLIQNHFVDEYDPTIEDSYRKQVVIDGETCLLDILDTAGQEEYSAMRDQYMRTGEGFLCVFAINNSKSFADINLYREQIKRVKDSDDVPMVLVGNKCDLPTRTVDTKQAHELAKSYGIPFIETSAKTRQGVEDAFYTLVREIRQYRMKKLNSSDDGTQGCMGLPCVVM

| SMILES | Kd [1] | NRAS /KRAS [2] | HRAS /KRAS [3] | IC50 [4] | IC50 [5] | IC50 [6] | IC50 [7] | IC50 [8] | IC50 [9] | IC50 [10] |
| --- | --- | --- | --- | --- | --- | --- | --- | --- | --- | --- |
| CCC[C@H]1C(=O)N[C@@H]([C@@H](C)CC)C(=O)N(C)CC(=O)N(C)[C@H]2C/C=C\CCN(C2=O)[C@@H](Cc2ccc(C(F)(F)F)cc2)C(=O)N(C)CC(=O)N[C@@H](CCc2cc(F)c(C(F)(F)F)c(F)c2)C(=O)N2CC3(CC3)C[C@H]2C(=O)N(C)C2(CCC2)C(=O)N(C)[C@@H](C2CCCC2)C(=O)N(C)[C@H](C(=O)N(C)C)CC(=O)N1C [PP3356] | 0.044 nM | A (a compound having 10 or more and less than 20 is denoted as A) | A (a compound having 10 or more and less than 20 is denoted as A) | 2.3 nM | 4 nM | 4.9 nM | 1.5 nM | 1 nM | 2.5 nM | 1.3 nM |
| CCC[C@H]1C(=O)N[C@@H]([C@@H](C)CC)C(=O)N2CCC[C@H]2C(=O)N(C)[C@H]2C/C=C\CCN(C2=O)[C@@H](Cc2ccc(C(F)(F)F)cc2)C(=O)N(C)CC(=O)N[C@@H](CCc2ccc(C(F)(F)F)c(OC)c2)C(=O)N2C[C@H](OCC)C[C@H]2C(=O)OC2(CCC2)C(=O)N(C)[C@@H](C2CCCC2)C(=O)N(C)[C@H](C(=O)N(C)C)CC(=O)N1C [PP3368, (1S,4S,10S,13S,17S,20S,26S,28R,32S,38S,42Z)-20-cyclopentyl-28-ethoxy-32-[2-[3-methoxy-4-(trifluoromethyl)phenyl]ethyl]-N,N,2,14,18,21,36-heptamethyl-10-[(1S)-1-methylpropyl]-3,9,12,15,19,22,25,31,34,37,45-undecaoxo-13-propyl-38-[[4-(trifluoromethyl)phenyl]methyl]spiro[24-oxa-2,8,11,14,18,21,30,33,36,39-decazatetracyclo[37.5.1.0^4,8.0^26,30]pentatetracont-42-ene-23,1'-cyclobutane]-17-carboxamide] | 0.57 nM | A (a compound having 10 or more and less than 20 is denoted as A) | A (a compound having 10 or more and less than 20 is denoted as A) | 11.9 nM | 20.4 nM | 18.6 nM | 22.6 nM | 2.8 nM | 42.5 nM | 13.9 nM |
| CCO[C@@H]1C[C@H]2C(=O)OC3(CCC3)C(=O)N(C)[C@@H](C3CCCC3)C(=O)N(C)[C@H](C(=O)N(C)C)CC(=O)N(C)[C@@H]([C@@H](C)OC)C(=O)N[C@@H]([C@@H](C)CC)C(=O)N3CCC[C@H]3C(=O)N(C)[C@H]3C/C=C\CCN(C3=O)[C@@H](Cc3ccc(C(F)(F)F)cc3)C(=O)N(C)CC(=O)N[C@@H](CCc3ccc(C(F)(F)F)c(OC)c3)C(=O)N2C1 [PP3374] | 0.41 nM | A (a compound having 10 or more and less than 20 is denoted as A) | A (a compound having 10 or more and less than 20 is denoted as A) | 5.9 nM | 7.4 nM | 8.2 nM | 6.9 nM | 1.9 nM | 15.9 nM | 6.3 nM |
| CCO[C@@H]1C[C@H]2C(=O)OC3(CCC3)C(=O)N(C)[C@@H](C3CCCC3)C(=O)N(C)[C@H](C(=O)N(C)C)CC(=O)N(C)[C@@H]([C@@H](C)OC)C(=O)N[C@@H]([C@@H](C)CC)C(=O)N(C)CC(=O)N(C)[C@H]3C/C=C\CCN(C3=O)[C@@H](Cc3ccc(C(F)(F)F)cc3)C(=O)N(C)CC(=O)N[C@@H](CCc3ccc(C(F)(F)F)c(OC)c3)C(=O)N2C1 [PP3376, (2S,8S,12R,14S,20S,23S,27S,30S,36S,38Z)-20-cyclopentyl-12-ethoxy-27-[(1R)-1-methoxyethyl]-8-[2-[3-methoxy-4-(trifluoromethyl)phenyl]ethyl]-N,N,4,19,22,26,32,35-octamethyl-30-[(1S)-1-methylpropyl]-3,6,9,15,18,21,25,28,31,34,42-undecaoxo-2-[[4-(trifluoromethyl)phenyl]methyl]spiro[16-oxa-1,4,7,10,19,22,26,29,32,35-decazatricyclo[34.5.1.0^10,14]dotetracont-38-ene-17,1'-cyclobutane]-23-carboxamide] | 0.096 nM | A (a compound having 10 or more and less than 20 is denoted as A) | A (a compound having 10 or more and less than 20 is denoted as A) | 2.4 nM | 4.3 nM | 6.8 nM | 2.9 nM | 0.6 nM | 4.3 nM | 2.2 nM |
| CCC[C@H]1C(=O)N[C@@H]([C@@H](C)CC)C(=O)N(C)CC(=O)N(C)[C@H]2C/C=C\CCN(C2=O)[C@@H](Cc2ccc(C)cc2)C(=O)N(C)CC(=O)N[C@@H](CCc2ccc(C(F)(F)F)c(OC)c2)C(=O)N2C[C@H](OCC)C[C@H]2C(=O)OC2(CCC2)C(=O)N(C)[C@@H](C2CCCC2)C(=O)N(C)[C@H](C(=O)N(C)C)CC(=O)N1C [PP3388, (2S,8S,12R,14S,20S,23S,27S,30S,36S,38Z)-20-cyclopentyl-12-ethoxy-8-[2-[3-methoxy-4-(trifluoromethyl)phenyl]ethyl]-N,N,4,19,22,26,32,35-octamethyl-30-[(1S)-1-methylpropyl]-3,6,9,15,18,21,25,28,31,34,42-undecaoxo-27-propyl-2-(p-tolylmethyl)spiro[16-oxa-1,4,7,10,19,22,26,29,32,35-decazatricyclo[34.5.1.0^10,14]dotetracont-38-ene-17,1'-cyclobutane]-23-carboxamide] | 0.16 nM | A (a compound having 10 or more and less than 20 is denoted as A) | B (a compound having 3 or more and less than 10 is denoted as B) | 1.2 nM | 7.4 nM | 10.5 nM | 4.6 nM | 1.2 nM | 6.7 nM | 4.9 nM |
| CCO[C@@H]1C[C@H]2C(=O)OC3(CCC3)C(=O)N(C)[C@@H](C3CCCC3)C(=O)N(C)[C@H](C(=O)N(C)C)CC(=O)N(C)[C@@H]([C@@H](C)OC)C(=O)N[C@@H]([C@@H](C)CC)C(=O)N(C)CC(=O)N(C)[C@H]3C/C=C\CCN(C3=O)[C@@H](Cc3ccc(C)cc3)C(=O)N(C)CC(=O)N[C@@H](CCc3ccc(C(F)(F)F)c(OC)c3)C(=O)N2C1 [PP3394, (2S,8S,12R,14S,20S,23S,27S,30S,36S,38Z)-20-cyclopentyl-12-ethoxy-27-[(1R)-1-methoxyethyl]-8-[2-[3-methoxy-4-(trifluoromethyl)phenyl]ethyl]-N,N,4,19,22,26,32,35-octamethyl-30-[(1S)-1-methylpropyl]-3,6,9,15,18,21,25,28,31,34,42-undecaoxo-2-(p-tolylmethyl)spiro[16-oxa-1,4,7,10,19,22,26,29,32,35-decazatricyclo[34.5.1.0^10,14]dotetracont-38-ene-17,1'-cyclobutane]-23-carboxamide] | 0.1 nM | A (a compound having 10 or more and less than 20 is denoted as A) | A (a compound having 10 or more and less than 20 is denoted as A) | 4.1 nM | 3.9 nM | 3.9 nM | 2.5 nM | 0.4 nM | 4.7 nM | 1.8 nM |
| CCC[C@H]1C(=O)N[C@@H]([C@@H](C)CC)C(=O)N(C)CC(=O)N(C)[C@H]2C/C=C\CCN(C2=O)[C@@H](Cc2ccc(C(F)(F)F)cc2)C(=O)N(C)CC(=O)N[C@@H](CCc2ccc(C(F)(F)F)c(Cl)c2)C(=O)N2CC3(CC3)C[C@H]2C(=O)NC2(CCC2)C(=O)N(C)[C@@H](C(CC)CC)C(=O)N(C)[C@H](C(=O)N(C)C)CC(=O)N1C [PP3414] | 0.37 nM | AA (a compound having 20 or more is denoted as AA) | A (a compound having 10 or more and less than 20 is denoted as A) | 11.9 nM | 19.7 nM | 29.3 nM | 13 nM | 4.3 nM | 50.9 nM | 29 nM |
